Results taken from the supplement of paper PMC10307832.

Columns and labels:
Test in all cases: relative viability (nuclei count vs DMSO), 5 days (fraction); higher = more cells survive
[1] = compound: CC1=CC(=C(N1C2=CC=C(C=C2)Cl)C)C(=O)CN3CCCCC3 [IU1-47] + Cc1cc(Nc2cc(N3CCN(C)CC3)nc(Sc3ccc(NC(=O)C4CC4)cc3)n2)n[nH]1 [Tozasertib] (partner 0.1 µM)
Summary of the method: (§1)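 Nuclei were stained with Hoechst during a one-step fixation (final 0.05% Triton X-100, 1% formaldehyde, 1 ug/ml Hoechst) carried out 5 days after dosing, then counted on 4× images. The cells, lung cancer lines in 1536-well plates, had been dosed by pin tool the day after seeding with one drug alone or a fixed anchor-drug dose plus five library-drug doses (not always all listed) in √10 steps. Relative viability is the nuclei count in treated wells divided by that in vehicle wells, and each value is the median of duplicate plates.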

[2] = compound: Cc1nc(C(=O)NCC(=O)O)c(O)c2ccc(Oc3ccccc3)cc12 [FG-4592] + COc1cc2c(Oc3ccc(NC(=O)C4(C(=O)Nc5ccc(F)cc5)CC4)cc3F)ccnc2cc1OCCCN1CCOCC1 [Foretinib] (partner 0.25 µM)
Summary of the method: as §1

[3] = compound: Cc1nc(C(=O)NCC(=O)O)c(O)c2ccc(Oc3ccccc3)cc12 [FG-4592] + C[C@]1(O)C[C@@H](c2nc(-c3ccc4ccc(-c5ccccc5)nc4c3)c3c(N)nccn32)C1 [Linsitinib] (partner 1 µM)
Summary of the method: as §1

[4] = compound: Cc1nc(C(=O)NCC(=O)O)c(O)c2ccc(Oc3ccccc3)cc12 [FG-4592] + CC(C)C[C@H](NC(=O)[C@H](Cc1ccccc1)NC(=O)c1cnccn1)B(O)O [Bortezomib] (partner 0.002 µM)
Summary of the method: as §1

| Cell Line | relative viability ([1]; first compound 0.08 µM) | relative viability ([1]; first compound 0.253 µM) | relative viability ([1]; first compound 0.8 µM) | relative viability ([1]; first compound 2.53 µM) | relative viability ([1]; first compound 8 µM) | relative viability ([2]; first compound 0.08 µM) | relative viability ([2]; first compound 0.253 µM) | relative viability ([2]; first compound 0.8 µM) | relative viability ([2]; first compound 2.53 µM) | relative viability ([2]; first compound 8 µM) | relative viability ([3]; first compound 0.08 µM) | relative viability ([3]; first compound 0.253 µM) | relative viability ([3]; first compound 0.8 µM) | relative viability ([3]; first compound 2.53 µM) | relative viability ([3]; first compound 8 µM) | relative viability ([4]; first compound 0.08 µM) | relative viability ([4]; first compound 0.253 µM) | relative viability ([4]; first compound 0.8 µM) | relative viability ([4]; first compound 2.53 µM) | relative viability ([4]; first compound 8 µM) |
| --- | --- | --- | --- | --- | --- | --- | --- | --- | --- | --- | --- | --- | --- | --- | --- | --- | --- | --- | --- | --- |
| HCC-78 | 0.37 | 0.508 | 0.479 | 0.372 | 0.404 | 0.556 | 0.561 | 0.52 | 0.541 | 0.576 | 0.599 | 0.476 | 0.374 | 0.494 | 0.506 | 0.558 | 0.51 | 0.406 | 0.453 | 0.371 |
| HCC-366 | 0.15 | 0.217 | 0.132 | 0.154 | 0.112 | 0.926 | 0.844 | 0.956 | 0.994 | 0.863 | 0.443 | 0.571 | 0.551 | 0.693 | 0.517 | 0.9 | 1.01 | 1.11 | 1.12 | 0.99 |
| HCC-827 | 0.458 | 0.424 | 0.449 | 0.409 | 0.383 | 1.06 | 0.899 | 1.04 | 1.03 | 1.06 | 1.02 | 0.895 | 0.984 | 0.975 | 0.945 | 1.04 | 0.947 | 1.23 | 0.983 | 0.939 |
| HOP-62 | 0.351 | 0.404 | 0.384 | 0.412 | 0.354 | 1.13 | 1.03 | 1.12 | 1.05 | 0.986 | 0.947 | 1.03 | 0.921 | 1.03 | 0.931 | 0.602 | 0.816 | 0.628 | 0.754 | 0.985 |
| IA-LM |  |  |  |  |  | 1.19 | 1.14 | 1.18 | 1.14 | 1.08 | 0.578 | 0.597 | 0.565 | 0.376 | 0.476 | 0.914 | 0.75 | 0.814 | 0.653 | 0.405 |
| LC-2-ad | 0.465 | 0.396 | 0.465 | 0.444 | 0.377 | 0.88 | 0.838 |  | 0.789 | 0.877 | 0.81 | 0.757 | 0.878 | 0.816 | 0.911 | 0.98 | 1.02 | 0.973 | 1.05 | 0.878 |
| LCLC-97TM1 | 0.217 | 0.235 | 0.251 | 0.358 | 0.198 | 0.9 | 0.901 | 0.876 | 0.887 | 0.866 | 0.179 | 0.191 | 0.17 |  | 0.183 | 0.77 | 0.522 | 0.884 | 0.71 | 0.301 |
| LK-2 | 0.163 | 0.168 | 0.155 | 0.168 | 0.166 | 1.17 | 0.95 |  | 1.19 | 0.993 | 0.434 | 0.615 | 0.383 | 0.662 | 0.424 |  |  |  |  |  |
| NCI-H358 | 0.089 | 0.103 | 0.0989 | 0.0928 | 0.0979 | 0.732 | 0.632 | 0.85 | 0.535 | 0.632 | 0.723 | 0.679 | 0.73 | 0.681 | 0.605 |  |  |  |  |  |
| NCI-H522 | 0.52 | 0.523 | 0.516 | 0.489 | 0.519 |  |  |  |  |  |  |  |  |  |  |  |  |  |  |  |
| NCI-H1299 |  |  |  |  |  | 1.12 | 1.06 | 1.15 | 1.07 | 1.07 | 0.979 | 0.939 | 0.956 | 0.989 | 0.964 | 1.07 | 0.993 | 0.951 | 1 | 1.06 |
| NCI-H1395 | 0.739 | 0.692 | 0.835 | 0.8 | 0.718 | 1.06 | 0.889 | 0.981 | 0.997 | 0.963 | 1.06 | 0.949 |  | 1.05 | 0.824 |  |  |  |  |  |
| NCI-H1563 |  |  |  |  |  | 0.995 | 0.961 | 0.866 | 1.01 | 0.82 | 1.27 | 1.24 | 1.19 | 1.27 | 1.22 | 0.647 | 0.843 | 0.751 | 0.8 | 0.661 |
| NCI-H1648 | 0.518 | 0.569 | 0.476 | 0.338 | 0.43 |  |  |  |  |  |  |  |  |  |  |  |  |  |  |  |
| NCI-H1650 | 0.399 | 0.489 | 0.363 | 0.382 | 0.264 | 1.24 | 0.903 | 1.21 | 1.33 | 1.04 |  |  |  |  |  | 0.207 | 0.238 | 0.23 | 0.205 | 0.186 |
| NCI-H1703 |  |  |  |  |  |  | 0.312 | 0.34 | 0.321 | 0.339 | 0.837 | 0.55 | 0.679 | 0.755 | 0.617 | 0.334 | 0.327 | 0.355 | 0.186 | 0.274 |
| NCI-H1792 |  |  |  |  |  |  |  |  |  |  | 0.522 | 0.411 | 0.487 | 0.577 | 0.567 | 0.985 | 0.753 | 0.998 | 0.883 | 0.923 |
| NCI-H1793 | 0.346 | 0.319 | 0.296 |  | 0.299 | 0.739 | 0.71 |  | 0.593 | 0.554 | 0.732 | 0.78 |  | 1.01 | 0.856 |  |  |  |  |  |
| NCI-H1944 | 0.231 | 0.248 | 0.265 | 0.283 | 0.265 | 0.928 | 0.816 | 0.941 | 0.85 | 0.934 | 1.15 | 1.16 | 1.01 | 1.2 | 1.04 |  |  |  |  |  |
| NCI-H2170 | 0.714 | 0.786 | 0.762 | 0.892 | 0.676 | 1.01 | 0.962 | 1.03 | 1.04 | 0.915 |  |  |  |  |  |  |  |  |  |  |
| NCI-H2342 | 0.493 | 0.608 | 0.602 | 0.512 | 0.594 | 1 | 1.01 | 1.06 | 0.959 | 0.993 |  |  |  |  |  |  |  |  |  |  |
| SK-MES-1 | 1 | 1.03 | 0.906 | 0.868 | 0.935 | 1.09 | 0.724 | 0.779 | 0.934 | 0.836 | 1.07 | 0.895 | 1.06 | 1.07 | 0.957 |  |  |  |  |  |
| SW 900 | 0.512 | 0.54 | 0.615 | 0.439 | 0.469 | 0.823 | 0.947 | 1.08 | 1.17 | 0.833 |  |  |  |  |  |  |  |  |  |  |
